The text below walks through data of patent publication US10272081B2, “SHIP1 modulators and methods related thereto” (Aquinox Pharmaceuticals (Canada) Inc., priority 2013, dated 2019).

The structures appear in SMILES notation.

In the first assay the target is T1, His-hSHIP1 enzyme (Homo sapiens, UniProt Q92835).
T1 construct: His
T1 sequence (Q92835 1-1189): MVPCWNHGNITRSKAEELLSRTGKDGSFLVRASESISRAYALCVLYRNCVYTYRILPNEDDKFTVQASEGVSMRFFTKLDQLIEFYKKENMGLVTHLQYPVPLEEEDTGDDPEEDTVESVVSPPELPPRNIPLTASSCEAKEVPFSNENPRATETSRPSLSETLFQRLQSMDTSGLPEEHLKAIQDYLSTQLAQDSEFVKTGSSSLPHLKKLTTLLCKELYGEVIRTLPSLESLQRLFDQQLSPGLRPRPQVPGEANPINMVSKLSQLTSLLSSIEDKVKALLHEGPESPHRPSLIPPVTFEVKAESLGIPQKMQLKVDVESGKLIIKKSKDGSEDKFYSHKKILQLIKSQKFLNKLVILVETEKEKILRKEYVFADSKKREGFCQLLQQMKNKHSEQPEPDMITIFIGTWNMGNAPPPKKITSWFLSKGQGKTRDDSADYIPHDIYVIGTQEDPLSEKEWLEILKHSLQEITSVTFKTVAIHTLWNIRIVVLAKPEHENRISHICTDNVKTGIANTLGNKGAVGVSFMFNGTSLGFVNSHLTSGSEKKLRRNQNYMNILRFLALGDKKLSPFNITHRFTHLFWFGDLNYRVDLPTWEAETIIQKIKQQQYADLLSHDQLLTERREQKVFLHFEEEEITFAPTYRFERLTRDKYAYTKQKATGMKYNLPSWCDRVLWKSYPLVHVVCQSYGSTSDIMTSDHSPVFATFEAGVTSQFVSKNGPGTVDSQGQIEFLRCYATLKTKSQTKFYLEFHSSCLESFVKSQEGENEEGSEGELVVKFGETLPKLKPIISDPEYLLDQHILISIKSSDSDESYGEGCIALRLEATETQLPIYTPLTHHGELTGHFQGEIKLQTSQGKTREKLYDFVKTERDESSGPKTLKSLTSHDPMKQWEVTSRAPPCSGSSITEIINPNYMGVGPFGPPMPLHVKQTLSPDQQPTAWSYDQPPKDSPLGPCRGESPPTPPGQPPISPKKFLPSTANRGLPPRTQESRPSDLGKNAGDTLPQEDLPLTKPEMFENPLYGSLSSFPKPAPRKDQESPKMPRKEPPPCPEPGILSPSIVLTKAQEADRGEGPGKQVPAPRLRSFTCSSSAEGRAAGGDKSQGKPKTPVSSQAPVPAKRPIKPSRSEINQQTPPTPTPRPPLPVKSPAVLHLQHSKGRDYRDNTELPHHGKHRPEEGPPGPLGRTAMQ
Kind of assay: His-hSHIP1 activity, approach 2 (ratio of initial velocities IP4 25/IP4 250). In kind it is biochemical. Also on record: key: +++: higher than reference or reference - 15%; ++: reference - 16% to reference - 30%; +: reference - 31% or lower. The conditions noted are these: ratio of initial velocities IP4 25/IP4 250 versus reference SHIP1 activator; asterisk in Table 2. The procedure: (§1) Test compounds are dissolved in 95% ethanol to form stock solutions. Before screening, the stock solutions are diluted with Phosphatase Assay Buffer (20 mM Tris-HCL, 10 mM MgCl2 pH 7.5, 0.02% Tween 20) to form working assay solutions that contain 10% ethanol. The assay is carried out on 96-well microtiter plates using a modified procedure of that reported by Ong et al., Blood 110, 1942-1949, 2007 and Yang et al., Org Lett 7, 1073-1076, 2005, both of which references are incorporated herein by reference in their entirety.
In the second approach, a master mix is prepared that contains […] (0.4-1.6 ng/μL final), 25 μL of the substrate, IP4 (25 or 250 μM final), and 50 μL of test compound in 3.3% ethanol ([…]). Control blanks are also prepared by replacing His-hSHIP1 enzyme, IP4, or test compounds with Phosphate Assay Buffer. […] Each reaction component is preincubated at 37° C. for 30 min before adding to a 96-well microtiter plate. The master mix is then incubated at 37° C. At time 0, 20, 25 and 30 min, 25 μL of the master mix is removed and transferred to a new 96-well microtiter plate, to which 100 μL of Biomol Green Reagent is added to stop the reaction. After incubating the mixture for 20 min at room temperature for color development, the absorbance is read with SpectraMax Plus 96-well plate reader at a wavelength of 650 nm. Phosphate released is plotted against time to calculate the initial velocities (i.e., slope of the graph) at each IP4 concentration. The initial velocities are baseline corrected and the ratio of initial velocities (IP425/IP4250) is calculated and used to rate the test compounds.
Regarding `Cc1cc(O)cc(C(=O)[C@H]2[C@H](C)[C@H](NCc3cnc[nH]3)C[C@H]3C(C)(C)CCC[C@]23C)c1` [Compound No. 137, 3-{[(1S,2S,3R,4aS,8aS)-3-[(1H-imidazol-5-ylmethyl)amino]-2,5,5,8a-tetramethyl-decahydronaphthalen-1-yl]carbonyl}-5-methylphenol], the “Scoring, Approach 2 (Initial velocity Ratio)” value is listed as “++”.
Consider `C[C@@H]1[C@H](NC(=O)CNS(=O)(=O)c2ccccc2C(=O)O)C[C@H]2C(C)(C)CCC[C@]2(C)[C@H]1C(=O)c1cc(O)cc(O)c1` [Compound No. 181, 2-[({[(2R,3S,4S,4aS,8aS)-4-[(3,5-dihydroxyphenyl)carbonyl]-3,4a,8,8-tetramethyl-decahydronaphthalen-2-yl]carbamoyl}methyl)sulfamoyl]benzoic acid], for which the “Scoring, Approach 2 (Initial velocity Ratio)” value is listed as “+++”.
Same read-out and setting: in the case of `C[C@H]1CC[C@H]2C(C)(C)CCC[C@]2(C)[C@H]1CC(=O)Nc1cc(O)cc(O)c1` [Compound No. 149, 2-[(1S,2S,4aS,8aR)-2,5,5,8a-tetramethyl-decahydronaphthalen-1-yl]-N-(3,5-dihydroxyphenyl)acetamide] it was “++”; in that of `Cc1cc(O)cc(C(=O)[C@H]2[C@H](C)[C@H](NS(C)(=O)=O)C[C@H]3C(C)(C)CCC[C@]23C)c1` [Compound No. 176, N-[(2R,3S,4S,4aS,8aS)-4-[(3-hydroxy-5-methylphenyl)carbonyl]-3,4a,8,8-tetramethyl-decahydronaphthalen-2-yl]methanesulfonamide], “++”; in that of `COc1cc(OC)cc(C(=O)C2=C(C)[C@H](O)C[C@H]3C(C)(C)CCC[C@]23C)c1` [Compound No. 142, (2R,4aS,8aS)-4-[(3,5-dimethoxyphenyl)carbonyl]-3,4a,8,8-tetramethyl-1,2,4a,5,6,7,8,8a-octahydronaphthalen-2-ol], “++”.
The same measure, in the same setting: then `COc1cc(OC)cc(C(O)[C@@H]2[C@@]3(C)CCCC(C)(C)[C@@H]3CC[C@@]2(C)O)c1` (stereo partly drawn) [Compound No. 49, (1S,2R,4aS,8aS)-1-[(3,5-dimethoxyphenyl)(hydroxy)methyl]-2,5,5,8a-tetramethyl-decahydronaphthalen-2-ol], with “+++”; and `C[C@@H]1[C@H](NC(=N)N)C[C@H]2C(C)(C)CCC[C@]2(C)[C@H]1C(=O)c1cc(O)cc(O)c1` [Compound No. 178, 1-[(2R,3S,4S,4aS,8aS)-4-[(3,5-dihydroxyphenyl)carbonyl]-3,4a,8,8-tetramethyl-decahydronaphthalen-2-yl]guanidine], with “+++”.
The same measure, in the same setting: in the case of `Cc1cc(O)cc(C(=O)[C@H]2[C@H](C)[C@H](N)C[C@H]3C(C)(C)CCC[C@]23C)c1` [Compound No. 136, 3-{[(1S,2S,3R,4aS,8aS)-3-amino-2,5,5,8a-tetramethyl-decahydronaphthalen-1-yl]carbonyl}-5-methylphenol] it was “++”.
`C[C@@H]1[C@H](NC(=O)Nc2cccnc2)C[C@H]2C(C)(C)CCC[C@]2(C)[C@H]1C(=O)c1cc(O)cc(O)c1` [Compound No. 118, 3-[(2R,3S,4S,4aS,8aS)-4-[(3,5-dihydroxyphenyl)carbonyl]-3,4a,8,8-tetramethyl-decahydronaphthalen-2-yl]-1-(pyridin-3-yl)urea]: the “Scoring, Approach 2 (Initial velocity Ratio)” value is “+++”.
The same measure, in the same setting: in the case of `C[C@@H]1[C@H](NS(C)(=O)=O)C[C@H]2C(C)(C)CCC[C@]2(C)[C@H]1C(=O)c1cc(O)cc(O)c1` [Compound No. 179, N-[(2R,3S,4S,4aS,8aS)-4-[(3,5-dihydroxyphenyl)carbonyl]-3,4a,8,8-tetramethyl-decahydronaphthalen-2-yl]methanesulfonamide] it was “+”; in that of `CC1(C)CCC[C@]2(C)[C@@H](Cc3cc(O)cc(O)c3)[C@@H](C(=O)O)CC[C@@H]12` [Compound No. 157, (1S,2S,4aS,8aR)-1-[(3,5-dihydroxyphenyl)methyl]-5,5,8a-trimethyl-decahydronaphthalene-2-carboxylic acid], “++”.
Still for that read-out and setting: in the case of `COc1cc(OC)cc(S(=O)(=O)C[C@H]2C(C)C(O)C[C@H]3C(C)(C)CCC[C@]23C)c1` (stereo partly drawn) [Compound No. 173, (4S,4aS,8aS)-4-{[(3,5-dimethoxybenzene)sulfonyl]methyl}-3,4a,8,8-tetramethyl-decahydronaphthalen-2-ol] it was “+++”.
For `CC(=O)N[C@@H]1C[C@H]2C(C)(C)CCC[C@]2(C)[C@@H](C(=O)c2cc(C)cc(O)c2)[C@@H]1C` [Compound No. 139, N-[(2R,3S,4S,4aS,8aS)-4-[(3-hydroxy-5-methylphenyl)carbonyl]-3,4a,8,8-tetramethyl-decahydronaphthalen-2-yl]acetamide], the “Scoring, Approach 2 (Initial velocity Ratio)” value is reported as “++”.

A further assay has as its target T1, His-hSHIP1 enzyme. Nature of the assay: His-hSHIP1 activity, approach 1 (phosphate release from IP4, Biomol Green). In kind it is biochemical. The settings on record: activation of His-hSHIP1; IP4 50 μM; test compound 0-300 μM; no asterisk in Table 2. How it is done: as §1
Data were generated by one of two variant methods. Test compounds are screened by one of two approaches described as follows. In the first approach, each reaction contains 5 μL of His-hSHIP1 enzyme (5-20 ng), 10 μL of the substrate, 1,3,4,5-inositol tetrakisphosphate (IP4; 50 μM final), 5 μL of Phosphatase Assay Buffer, and 5 µL of test compound at various concentrations in 10% ethanol (0-300 μM final). Control blanks are also prepared by replacing His-hSHIP1 enzyme, IP4, or test compounds with Phosphatase Assay Buffer. After adding the reaction components in a 96-well microtiter plate on ice, the reaction is mixed by briefly shaking the plate vigorously. The reaction is then incubated at 37° C. for 15 min with gentle shaking followed by addition of 100 μL of Biomol Green Reagent (BIOMOL, Pa., USA) to terminate the reaction. The free phosphate released from IP4 by His-hSHIP1 binds to the Biomol Green Reagent, which turns the dye to green color. After incubating the mixture for 20 min at room temperature for color development, the absorbance is read with SpectraMax Plus 96-well plate reader (Molecular Devices, Sunnyvale, Calif., USA) at a wavelength of 650 nm.
For `Cc1cc(O)cc(C[C@H]2[C@@H](CO)CC[C@H]3C(C)(C)CCC[C@]23C)c1` [Compound No. 17, 3-{[(1S,2S,4aS,8aR)-2-(hydroxymethyl)-5,5,8a-trimethyl-decahydronaphthalen-1-yl]methyl}-5-methylphenol], the “Scoring, Approach 1 (% increase relative to background)” value is “++ (50 ≤ x < 65)”.
On the same count and under the same terms, then `C[C@@H]1[C@H](N)C[C@H]2C(C)(C)CCC[C@]2(C)[C@H]1C(=O)c1cc(O)cc(O)c1` [Compound No. 56, 5-{[(1S,2S,3R,4aS,8aS)-3-amino-2,5,5,8a-tetramethyl-decahydronaphthalen-1-yl]carbonyl}benzene-1,3-diol], with “+ (0 < x < 50)”; and `COc1cc(O)cc(C(=O)C[C@H]2[C@@H](C)CC[C@H]3C(C)(C)CCC[C@]23C)c1` [Compound No. 47, 2-[(1S,2S,4aS,8aR)-2,5,5,8a-tetramethyl-decahydronaphthalen-1-yl]-1-(3-hydroxy-5-methoxyphenyl)ethan-1-one], with “++ (50 ≤ x < 65)”; and `CC1=C(C(=O)Nc2cc(O)cc(O)c2)[C@@]2(C)CCCC(C)(C)[C@@H]2CC1` [Compound No. 43, (4aS,8aS)-N-(3,5-dihydroxyphenyl)-2,5,5,8a-tetramethyl-3,4,4a,5,6,7,8,8a-octahydronaphthalene-1-carboxamide], with “+ (0 < x < 50)”.
